Measured values published in patent US20250180567A1, “METHOD FOR MEASURING GL[…] ANTIGEN PROTEIN OF HBV” (RCMG Inc., priority 2021, published 2025).

Key:
[1] = tested on: glycosylated recombinant HBs antigen protein; test: sandwich ELISA of immobilized HBs antibody (HBsAgGi) and biotinylated lectins; type: binding, hepatitis B virus; conditions: FIG. 1; for detection of N-glycosylated S-HBs as a specific positive signal (ELISA absorbance): lectin-biotin 1 μg/mL, absorbance at 450 nm
Protocol: A purified antibody against HBs antigen protein (HBsAgGi) was immobilized on a plate, and a sandwich ELISA system was constructed to examine the optimal lectin to be used for detecting the capturedHBs antigen.
1) HBsAgGi (5 μg/mL) diluted with BSA (5 μg/mL)/PBS was added to a Nunc Immobilizer Amino Plate at a volume of 0.1 mL per well, and the plate was shaken at room temperature for 4 hours to immobilize the antibody. After washing twice with PBS-T, 0.3 mL of TBS was added per well and the plate was allowed to stand overnight at 4° C. for blocking. 2) After washing with PBS-T, glycosylated recombinant HBs antigen protein was diluted to 400 ng/ml with Sample dilution buffer (3% BSA/TBS-T), 0.1 mL thereof was added per well, and the plate was shaken at room temperature for 2.5 hours to be captured the antigen on the antibody solid-phased plate. In order to confirm the effect of the serum, recombinant HBs antigen to which 5% Normal human serum (NHS) was added was also treated in the same manner. 3) After washing the wells four times with PBS-T, the wells were reacted with the following lectins diluted with PBS-T at room temperature for 2 hours by shaking.
Jacalin-biotin (1 μg/mL), MAL II-biotin (1 μg/mL), RCA120-biotin (1 μg/mL), SNA-biotin (1 μg/mL), SSA-biotin (1 μg/mL), WGA-biotin (1 μg/mL) 4) After washing four times with PBS-T, the wells were reacted with Peroxidase-conjugated Streptavidin (1/20,000 dilution) or SSA-HRP (2 μg/mL) diluted with PBS-T at room temperature for 1 hour by shaking.
5) After washing the wells four times with PBS-T, 0.1 mL of 1Step Ultra TMB-ELISA was added per well and allowed to react for 5 min, then 50 μL of 1 mol/L sulfuric acid was added to stop the reaction. After the reaction was stopped, the absorbance at 450 nm was immediately measured by a plate reader.

glycosylated S-HBs = test: lectin-antibody combination ELISA using sera from chronic hepatitis B patients; type: binding, hepatitis B virus; conditions: actual sera from chronic hepatitis B patients; lectin combined with S-HBs antibody
Protocol: This finding means that the glycosylated chains attached to S-HBs bind to WGA, which is completely unexpected.
Sera from untreated (no treatment history with nucleic acid analogs) chronic hepatitis B patients (HBs antigen positivity persisting for 6 months or more) (n=4) were used before (0) weeks) and 48 weeks after nucleic acid analog treatment. 1) HBsAg antibody (Hyb-824, 5 μg/mL) diluted with BSA (5 μg/mL)/PBS was added to a Nunc Immobilizer Amino Plate in an amount of 0.1 mL per well, and the plate was shaken at room temperature for 2 hours to immobilize the antibody. After washing twice with PBS-T, 0.3 mL of TBS was added per well and the wells were allowed to stand at 4° C. overnight for blocking. 2) After washing the wells with PBS-T, patient samples (before treatment and 48 weeks after treatment) were diluted 1/20 and 1/100 with Sample dilution buffer (3% BSA/TBS-T), and 0.1 mL was added per well, and the plate was shaken at room temperature for 1.5 hours to capture the antigen onto the antibody-immobilized plate. […] After the reaction was stopped, the absorbance at 450 nm was immediately measured by a plate reader.

Substance	detection of N-glycosylated S-HBs as a specific positive signal (ELISA absorbance) [1]	specificity of detection of glycosylated S-HBs in patient sera (glycosylated S-HBs)	effect of NHS added to the sample on lectin detection ([1]; 5% Normal human serum (NHS) added to recombinant HBs antigen)	reaction of the lectin with the solid-phased antibody ([1]; antibody HBsAgGi immobilized on plate)
Salvia sclarea agglutinin [SSA lectin]	could not detect	unexpectedly low	–	–
wheat germ agglutinin [WGA lectin]	very clear detection	could specifically detect	not affected	did not react
